Test results taken from US7795226B2, “Control of radiation injury” (Biotempt B.V., priority 2006, dated 2010).

Tests used:
[1] = tested on: high dose LPS (E. coli 026:B6)-induced septic shock in BALB/c mice; assay: high dose LPS-induced septic shock, peptide administered twice; assay type: in vivo; details: peptide twice (t = 2 and 24 hours) 5 mg/kg
Experimental: Mice used in sepsis or septic shock experiments: Female BALB/c mice of eight to twelve weeks of age were used for all experiments. The animals were bred in our facility under specific pathogen-free conditions according to the protocols described in the […] of European Laboratory Animal Science Associations (FELASA) Working group on Animal Health (Laboratory Animals 28:1-24, 1994).
Injection protocols: For the endotoxin model, BALB/c mice were injected i.p. with 150-300 μg LPS (E. coli 026:B6; Difco Lab., Detroit, Mich., USA). Control groups were treated with PBS i.p. only. To test the effect of peptides, they were dissolved in PBS and injected i.p. at predetermined points in time after LPS treatment.
Mice were scored for sickness severity using the following measurement scheme: • 0 No abnormalities. • 1 Percolated fur, but no detectable behavior differences compared to normal mice. • 2 Percolated fur, huddle reflex, responds to stimuli (such as tap on cage), just as active during handling as healthy mouse. • 3 Slower response to tap on cage, passive or docile when handled, but still curious when alone in a new setting. • 4 Lack of curiosity, little or no response to stimuli, quite immobile. • 5 Labored breathing, inability or slow to self-right after being rolled onto back (moribund, sacrificed). • D Dead.
A second set of septic shock experiments were set up to determine which of the peptides LQG, LQGV (SEQ ID NO:117), VLPALP (SEQ ID NO:140), VLPALPQ (SEQ ID NO:143), MTR, MTRV (SEQ ID NO:119), VVC or AQG, AQGV (SEQ ID NO:120), LAG and LAGV (SEQ ID NO:121) were capable of inhibiting high dose LPS-induced septic shock in mice by treating mice with a double dose of peptide at two and 24 hours after LPS treatment. At each treatment, peptides were used at 5 mg/kg bodyweight. BALB/c mice were injected i.p. with high doses LPS (E. coli 026:B6; Difco Lab., Detroit, Mich. USA), predetermined to be leading to 80 to 100% mortality in 24 to 72 hours.

[2] = tested on: cell-cycle marker pCDG and auxin-responsive marker DR5::GUS; assay: Arabidopsis thaliana seedling cell-cycle analysis (GUS markers); details: Results from Examples 9 and 10
Experimental: To further study anti-cell-cycle activity of various oligopeptides, a proliferation experiment in Arabidopsis Thaliana seedlings was performed. The aim was to test a group of 140 oligopeptides of varying length for their effect on plant marker gene expression during rapid growth when avid cell division occurs.
The peptides were re-suspended in 1× Phosphate Buffer Saline (PBS) pH 8 to a final concentration of 5 mg/ml. The obtained solutions were then divided through 96-well round bottom plates (Corning Incorporated) at 40 microliters per well. Plates were stored before use at […] for four days. Seeds of Arabidopsis thaliana ecotype Ws-0 were surface sterilized in 2% commercial bleach (Gloria) for ten minutes and washed five times with sterile MQ water. The seeds were then re-suspended with 0.1% agar and plated on MS20 plates supplemented with 80 mg/l Kanamycin.
The plates were placed at […] for two nights and then transferred to a climate room at […] and a 16/8 hours photoperiod. After four days of growth, the seedlings were transferred to 96-well plates containing the peptide solutions (four seedlings per well) and incubated for four and eight hours.
For this experiment, Arabidopsis homozygous seedlings harboring two reporter genes fused to GUS were used. […] After incubation with the compounds, the seedlings were stained for GUS. The staining reaction was performed in 100 mM sodium phosphate buffer (pH 7.0) that contained 10 mM EDTA, 10% DMSO, 0.1% Triton X-100, 2 mM X-Gluc, 0.5 mM K3Fe(CN)6 and 0.5 mM K4Fe(CN)6 at […] for 16 hours. […] Seedlings were fixed and cleared in chloral hydrate solution for detailed microscopic observation and photography under a microscope equipped with DIC optics.
Peptides were tested for an effect on marker gene expression on rapidly growing Arabidopsis young seedlings. This was monitored by changes on GUS distribution in different organs: root, root-hypocotyl transition zone and cotyledons.

[3] = tested on: renal ischemia reperfusion in mice; assay: mouse renal ischemia reperfusion test; assay type: in vivo; parameters: BUN after 25 minutes renal ischemia, mean / Urea levels in dose-response experiment: unit not given here; details: for BUN concentration versus the PBS control group (in words) / mortality versus the PBS control group (in words) / BUN after 25 minutes renal ischemia, mean: 5 mg/kg i.v.; for mortality at 72 hours post-reperfusion: 5 mg/kg i.v. before and after 25 minutes clamping, dead/total
Experimental: Six oligopeptides (i.e., A: LAGV (SEQ ID NO:121); B: AQGV (SEQ ID NO:120); C: LAG; D: AQG; E: MTR; and F: MTRV (SEO ID NO:119)) were tested and compared with PBS (control) in a double blind animal study for each peptide's relative ability to aid recovery in a mouse renal ischemia reperfusion test. In this test, the mice were anesthetized, and one kidney from each mouse was removed. The other kidney was tied off for 25 minutes, and the serum urea levels were allowed to increase. Both before and after tying off, each of the separate peptides was administered to thirty (30) different mice (5 mg oligopeptide / kg body mass intravenously), after which, the mortality of the mice was determined for each oligopeptide as well as was the BUN concentration at two hours, 24 hours and 72 hours. The results are shown in Table 3 below (excluding the results of peptide A (LAGV (SEQ ID NO:121)) obtained in Example 3).
Under inhalation anesthesia, the left kidney with its artery and vein was isolated and occluded for 25 minutes using a microvascular clamp. During surgery, animals were placed on a heating pad to maintain body temperature at 37° C. Five minutes before placing the clamp, and five minutes before releasing the clamp, 5 mg/kg of peptide dissolved in 0.1 mL of sterile saline, was administered intravenously. After reperfusion of the left kidney, the right kidney was removed. Kidney function was assessed by measuring blood urea nitrogen before clamping, and at 2, 24, and 72 hours after reperfusion.
Peptides were tested at 0.3, 1, 3, 10 and 30 mg/kg dosages given as described in Example 3. P values (calculated by Mann Whitney U-test (SPSS for Windows)) of serum urea levels of PBS compared to peptide D groups at 72 hours post-clamping were at 0.3 mg/kg 0.001, at 1 mg/kg 0.009, at 3 mg/kg 0.02, at 10 mg/kg 0.000, and at 30 mg/kg 0.23; for peptide B (SEQ ID NO:120) groups, these P-values were 0.88, 0.054, 0.000, 0.001 and 0.003.

AQG
mice with sickness score 1, effect at t = 24 hours ([1]; LPS dose 10.5): 2 | mice with sickness score 1, effect at t = 48 hours ([1]; LPS dose 10.5): 2 | mice with sickness score 2, effect at t = 24 hours ([1]; LPS dose 10.5): 1 | mice with sickness score 2, effect at t = 48 hours ([1]; LPS dose 10.5): 3 | mice with sickness score 3, effect at t = 24 hours ([1]; LPS dose 10.5): 2 | mice with sickness score 1, effect at t = 24 hours ([1]; LPS dose 11): 4 | mice with sickness score 2, effect at t = 48 hours ([1]; LPS dose 11): 6 | mice with sickness score 3, effect at t = 24 hours ([1]; LPS dose 11): 2 | identified as useful peptide for treatment of radiation injury from cell-cycle studies in plants and in vitro proliferation studies [2]: useful | Mortality in dose-response experiment ([3]; 0.3 mg/kg, 24 hours): 0-10 | Urea levels in dose-response experiment ([3]; 0.3 mg/kg, 24 hours): 38.4 | Mortality in dose-response experiment ([3]; 0.3 mg/kg, 72 hours): 2-8 | Urea levels in dose-response experiment ([3]; 0.3 mg/kg, 72 hours): 30.4 | Mortality in dose-response experiment ([3]; 1.0 mg/kg, 24 hours): 0-10 | Urea levels in dose-response experiment ([3]; 1.0 mg/kg, 24 hours): 48.4 | Mortality in dose-response experiment ([3]; 1.0 mg/kg, 72 hours): 1-8 | Urea levels in dose-response experiment ([3]; 1.0 mg/kg, 72 hours): 38.4 | Mortality in dose-response experiment ([3]; 3.0 mg/kg, 24 hours): 0-10 | Urea levels in dose-response experiment ([3]; 3.0 mg/kg, 24 hours): 39.3 | Mortality in dose-response experiment ([3]; 3.0 mg/kg, 72 hours): 0-10 | Urea levels in dose-response experiment ([3]; 3.0 mg/kg, 72 hours): 40.3 | BUN concentration versus the PBS control group (in words) [3]: no reducing effect on BUN concentration | mortality versus the PBS control group (in words) [3]: significant reduction of mortality | mortality at 72 hours post-reperfusion [3]: 4/10 | Mortality in dose-response experiment ([3]; 10.0 mg/kg, 24 hours): 0-8 | Urea levels in dose-response experiment ([3]; 10.0 mg/kg, 24 hours): 46.8 | Mortality in dose-response experiment ([3]; 10.0 mg/kg, 72 hours): 1-10 | Urea levels in dose-response experiment ([3]; 10.0 mg/kg, 72 hours): 25.8 | Mortality in dose-response experiment ([3]; 30.0 mg/kg, 24 hours): 0-8 | Urea levels in dose-response experiment ([3]; 30.0 mg/kg, 24 hours): 52.8 | Mortality in dose-response experiment ([3]; 30.0 mg/kg, 72 hours): 1-8 | Urea levels in dose-response experiment ([3]; 30.0 mg/kg, 72 hours): 58.9 | BUN after 25 minutes renal ischemia, mean ([3]; 2 hours after reperfusion): 17.7 | BUN after 25 minutes renal ischemia, mean ([3]; 24 hours after reperfusion): 66.76 | BUN after 25 minutes renal ischemia, mean ([3]; 72 hours after reperfusion): 91.18 | BUN levels in dose-response experiment (in words) ([3]; lower dosages tested (0.3-30 mg/kg range), compared with peptide B): did reduce BUN levels surprisingly well at the lower dosages tested | BUN after 25 minutes renal ischemia, mean ([3]; t = 0 hr (before clamping)): 9.304

LAG
mice scored D (dead), effect at t = 48 hours ([1]; LPS dose 10.5): 6 | mice with sickness score 5, effect at t = 24 hours ([1]; LPS dose 10.5): 5 | mice scored D (dead), effect at t = 48 hours ([1]; LPS dose 11): 6 | mice with sickness score 5, effect at t = 24 hours ([1]; LPS dose 11): 6 | identified as useful peptide for treatment of radiation injury from cell-cycle studies in plants and in vitro proliferation studies [2]: useful | BUN concentration versus the PBS control group (in words) [3]: no reducing effect on BUN concentration | mortality versus the PBS control group (in words) [3]: significant reduction of mortality | mortality at 72 hours post-reperfusion [3]: 4/10 | BUN after 25 minutes renal ischemia, mean ([3]; 2 hours after reperfusion): 18.13 | BUN after 25 minutes renal ischemia, mean ([3]; 24 hours after reperfusion): 59.24 | BUN after 25 minutes renal ischemia, mean ([3]; 72 hours after reperfusion): 74.4 | BUN after 25 minutes renal ischemia, mean ([3]; t = 0 hr (before clamping)): 10.15
